Source: US9849130B2 (KamTek, Inc., priority 2014, dated 2017)
Converted amounts (≈) assume the structure as drawn. “Also recorded” adds a separate entry of the source. Read-outs that look alike come from different tables or passages of the source.

How the values were obtained:
[1] = system: Escherichia coli strains; assay: MIC by microdilution in Mueller-Hinton broth against Escherichia coli strains; format: cell-based
[2] = system: CD strain VPI 1063; assay: MIC of CFM formulations following incubation with feces (supernatants); format: cell-based, Clostridium difficile; settings: for MIC: Clostridioides difficile
[3] = system: CD; assay: Animal model testing of CDI (Syrian Golden Hamster model), survival; format: in vivo
[4] = cited from earlier work
[5] = in vivo; cited from earlier work
[6] = cited from earlier work; remark: listed apart in the source
[7] = CFM formulations suitable for in vivo dosing (Table 18)
[8] = Escherichia coli strain NR 6, Mueller-Hinton broth
[9] = Escherichia coli strain NR 8, Mueller-Hinton broth
[10] = Escherichia coli strain NR 96, Mueller-Hinton broth
[11] = Escherichia coli strain NR 17626, Mueller-Hinton broth
[12] = Escherichia coli strain NR 17627, Mueller-Hinton broth
[13] = Escherichia coli strain NR 17633, Mueller-Hinton broth
[14] = Escherichia coli strain NR 17647, Mueller-Hinton broth
[15] = Escherichia coli strain NR 17650, Mueller-Hinton broth
[16] = Escherichia coli strain NR 17661, Mueller-Hinton broth
[17] = Escherichia coli strain NR 104, Mueller-Hinton broth
[18] = Escherichia coli, Escherichia coli strain NR 6, Mueller-Hinton broth, read-out: MIC
[19] = Escherichia coli, Escherichia coli strain NR 8, Mueller-Hinton broth, read-out: MIC
[20] = Escherichia coli, Escherichia coli strain NR 96, Mueller-Hinton broth, read-out: MIC
[21] = Escherichia coli, Escherichia coli strain NR 104, Mueller-Hinton broth, read-out: MIC
[22] = Escherichia coli, Escherichia coli strain NR 17626, Mueller-Hinton broth, read-out: MIC
[23] = Escherichia coli, Escherichia coli strain NR 17627, Mueller-Hinton broth, read-out: MIC
[24] = Escherichia coli, Escherichia coli strain NR 17633, Mueller-Hinton broth, read-out: MIC
[25] = Escherichia coli, Escherichia coli strain NR 17647, Mueller-Hinton broth, read-out: MIC
[26] = Escherichia coli, Escherichia coli strain NR 17650, Mueller-Hinton broth, read-out: MIC
[27] = Escherichia coli, Escherichia coli strain NR 17661, Mueller-Hinton broth, read-out: MIC

CN[C@H](CC(C)C)C(=O)N[C@H]1C(=O)N[C@@H](CC(N)=O)C(=O)N[C@H]2C(=O)N[C@H]3C(=O)N[C@H](C(=O)N[C@H](C(=O)O)c4cc(O)cc(O)c4-c4cc3ccc4O)[C@H](O)c3ccc(c(Cl)c3)Oc3cc2cc(c3O[C@@H]2O[C@H](CO)[C@@H](O)[C@H](O)[C@H]2O[C@H]2C[C@](C)(N)[C@H](O)[C@H](C)O2)Oc2ccc(cc2Cl)[C@H]1O [VAN, vancomycin]
MIC ([1]; E. coli NR 6, Mueller-Hinton broth): >32 µg/mL | MIC ([1]; E. coli NR 8, Mueller-Hinton broth): >32 µg/mL | MIC ([1]; E. coli NR 96, Mueller-Hinton broth): >32 µg/mL | MIC ([1]; E. coli NR 104, Mueller-Hinton broth): >32 µg/mL | MIC ([1]; E. coli NR 17626, Mueller-Hinton broth): >32 µg/mL | MIC ([1]; E. coli NR 17627, Mueller-Hinton broth): >32 µg/mL | MIC ([1]; E. coli NR 17633, Mueller-Hinton broth): >32 µg/mL | MIC ([1]; E. coli NR 17647, Mueller-Hinton broth): >32 µg/mL | MIC ([1]; E. coli NR 17650, Mueller-Hinton broth): >32 µg/mL | MIC ([1]; E. coli NR 17661, Mueller-Hinton broth): >32 µg/mL | MIC ([1]; Escherichia coli): > 32 µg/mL | MIC [1, 8]: >32 µg/mL | MIC [1, 9]: >32 µg/mL | MIC [1, 10]: >32 µg/mL | MIC [1, 11]: >32 µg/mL | MIC [1, 12]: >32 µg/mL | MIC [1, 13]: >32 µg/mL | MIC [1, 14]: >32 µg/mL | MIC [1, 15]: >32 µg/mL | MIC [1, 16]: >32 µg/mL | MIC ([2]; VPI1063, 2 h, read-out: MIC in Centrifuged BHI control): 0.5 µg/mL | MIC ([2]; VPI1063, 2 h, read-out: MIC in Fecal extracts): 1 µg/mL | MIC ([2]; VPI1063, read-out: MIC in BHI control): 0.5 µg/mL | increase in MIC after incubation in feces ([2]; Table 21): 2 fold | survival by day 14 ([3]; drug alone at the same dosage as in the combination (VAN 5 mg/kg twice a day)): 0%

CCN=c1cc2n(-c3cccc(C(F)(F)F)c3)c3ccccc3nc-2cc1Nc1cccc(C(F)(F)F)c1 [B4129]
activity against E. coli (in words) [1]: relatively inactive | MIC [1, 8]: >32 µg/mL | MIC [1, 9]: >32 µg/mL | MIC [1, 10]: >32 µg/mL | MIC [1, 17]: >32 µg/mL | MIC [1, 11]: >32 µg/mL | MIC [1, 12]: >32 µg/mL | MIC [1, 13]: >32 µg/mL | MIC [1, 14]: >32 µg/mL | MIC [1, 15]: >32 µg/mL | MIC [1, 16]: >32 µg/mL

CCN=c1cc2n(-c3ccc(Cl)cc3)c3ccccc3nc-2cc1Nc1ccc(Cl)cc1 [B746]
activity against E. coli (in words) [1]: relatively inactive | MIC [1, 8]: >32 µg/mL | MIC [1, 9]: >32 µg/mL | MIC [1, 10]: >32 µg/mL | MIC [1, 17]: >32 µg/mL | MIC [1, 11]: >32 µg/mL | MIC [1, 12]: >32 µg/mL | MIC [1, 13]: >32 µg/mL | MIC [1, 14]: >32 µg/mL | MIC [1, 15]: >32 µg/mL | MIC [1, 16]: >32 µg/mL

CC(C)N=c1cc2n(-c3ccc(Cl)cc3)c3ccccc3nc-2cc1Nc1ccc(Cl)cc1 [CFM, 3-(p-chloroanilino)-10-(p-chlorophenyl)-2,10-dihydro-2-iso-propyliminophenazine]
activity against E. coli (in words) [1]: relatively inactive; also recorded: not active | MIC [1, 18]: > 32 µg/mL | MIC [1, 19]: > 32 µg/mL | MIC [1, 20]: > 32 µg/mL | MIC [1, 21]: > 32 µg/mL | MIC [1, 22]: > 32 µg/mL | MIC [1, 23]: > 32 µg/mL | MIC [1, 24]: > 32 µg/mL | MIC [1, 25]: > 32 µg/mL | MIC [1, 26]: > 32 µg/mL | MIC [1, 27]: > 32 µg/mL | solubility in water [4]: 0.225 µg/mL (≈ 0.475 µM) | protection at higher dosages ([3]; 20 and 40 mg/kg versus 10 mg/kg): did not increase the protection | protection during 28 days of observation ([3]; CFM dosage of 10 mg/kg): 30% | survival for 27 days ([3]; CFM in aqueous suspension of CMC at 10 mg/kg/once a day): 30% | protection on animal survival by day 9 after infection ([3]; CFM in aqueous suspension of CMC, oral, 10 mg/kg/day, 5 days): 50% | survival by day 7 ([3]; drug alone at the same dosage as in the combination (Lamprene 10 mg/kg twice a day)): 0% | gastrointestinal conditions including abdominal and epigastric pain, nausea, vomiting and/or diarrhea [5]: 40-50 % of patients | icothyosis and dryness of skin [5]: 8-28 % of patients | ocular conditions including conjunctival pigmentation, itching and dryness [5]: approximately 1 % of patients | rash and pruritus [5]: 1-5 % of patients | skin pigmentation [5]: 75-100 % of patients | half-life ([6]; after a single dose of 100 mg): about 10 days | half-life ([6]; following long-term high dosage of 300 mg): about 70 days | orally absorbed bioavailability ([6]; in vivo, po): 45-65% | solubility ([7]; Cremophor-EL (100%, liquid), organic solvent or mixture, in Cremophor-EL, liquid, 100%): 8000 µg/mL (≈ 16900 µM) | solubility ([7]; Cremophor-EL (100%, liquid), organic solvent or mixture, in Cremophor-EL, liquid, 100%, if kept for long time (3-5 days)): 10000 µg/mL (≈ 21100 µM) | solubility ([7]; Phosal 50 PG (phospholipids), oil or lipid, in Phosal 50 PG (phospholipids), thick oily liquid): 10000 µg/mL (≈ 21100 µM) | solubility ([7]; Phosal 53 MCT (phospholipids), oil or lipid, in Phosal 53 MCT (phospholipids), thick oily liquid): 10000 µg/mL (≈ 21100 µM) | solubility ([7]; Tween 80 (100%, liquid), organic solvent or mixture, in Tween 80, liquid, 100%): 12000 µg/mL (≈ 25300 µM) | solubility ([7]; Tween 80 (100%, liquid), organic solvent or mixture, in Tween 80, liquid, 100%, if kept for long time (3-5 days)): 15000 µg/mL (≈ 31700 µM) | Stability ([7]; in Cremophor-EL, liquid, 100%, remains stable following dilution in water/medium/saline/PBS): Stable, and remains | Stability ([7]; in Olive oil, canola oil, and coconut oil, diluted only in oils, forms emulsions in water): Stable, should be | Stability ([7]; in Phosal 50 PG (phospholipids), forms emulsion in water): Stable, clear, thick | Stability ([7]; in Phosal 53 MCT (phospholipids), forms emulsion in water): Stable, clear, thick | Stability ([7]; in Tween 80, liquid, 100%, stable after dilution in water or culture medium, PBS, precipitates slowly in saline): Stable undiluted, | solubility ([7]; olive oil, canola oil, and coconut oil (100%, liquid), oil or lipid, in Olive oil, canola oil, and coconut oil, liquid, 100%): 5000 µg/mL (≈ 10600 µM) | solubility ([7]; polyethylene glycol (PEG-300, PEG-400), 100%, liquid, organic solvent or mixture, in Polyethylene glycol (PEG-300, PEG-400)): 5000 µg/mL (≈ 10600 µM)

Cc1ncc([N+](=O)[O-])n1CCO [MET, metronidazole]
MIC [1, 18]: > 32 µg/mL | MIC [1, 19]: > 32 µg/mL | MIC [1, 20]: > 32 µg/mL | MIC [1, 21]: > 32 µg/mL | MIC [1, 22]: > 32 µg/mL | MIC [1, 23]: > 32 µg/mL | MIC [1, 24]: > 32 µg/mL | MIC [1, 25]: > 32 µg/mL | MIC [1, 26]: > 32 µg/mL | MIC [1, 27]: > 32 µg/mL | MIC in Fecal extracts ([2]; 128 μg/ml in 20% feces, 2 hours at 37° C., centrifuged, supernatants filter sterilized and tested, CD strain VPI 1063): >32 µg/mL | MIC ([2]; VPI1063, 128 μg/ml in 20% feces, 2 hours at 37° C., centrifuged, supernatants filter sterilized and tested, CD strain VPI 1063, read-out: MIC in Fecal extracts): > 32 µg/mL | MIC ([2]; VPI1063, serial dilutions in BHI, without centrifugation, CD strain VPI 1063, read-out: MIC in BHI control): 0.062 µg/mL
